Literature values in patent US10980267B2, “Molecular particle superior delivery system” (priority 2018, dated 2021).

Columns and labels:
[1] = consumed in foods and drinks
[2] = especially child seizures
[3] = in humans, WHO report

In the case of C=C(C)[C@@H]1CCC(C)=C[C@H]1c1c(O)cc(CCCCC)cc1O [CBD, cannabidiol], the “safety of consumption / toxicity” value [1] is given as “completely safe to consume in foods and drinks and is considered to be non-toxic”, the “effect on number of seizures” value [2] is given as “reduce the number of seizures” and the “abuse or dependence potential” value [3] is given as “no effects indicative of any abuse or dependence potential”.
